Assay results taken from US20240109930A1, “TRIAZOLYL-METHYL SUBSTITUTED ALPHA-D-GALACTOPYRANOSIDE DERIVATIVES” (Idorsia Pharmaceuticals Ltd, priority 2021, published 2024).
pIC50: −log10 of the molar value.

Columns and labels:
human Gal-3 (hGal-3) = human Gal-3 (hGal-3) (Homo sapiens (Human), UniProt P17931); experiment: Competitive binding assay: biotinylated hGal-3 binding to microplate-adsorbed asialofetuin (ASF); details: IC50 values from several measurements given as geomean
How it was run: (§1)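 Biotinylated hGal-3 or hGal-1 (preferably cysteine-free Cys→Ser mutant), 300–1000 ng/mL, competes with compound for ASF-coated wells for 3 h at 4 °C. Bound lectin detected with streptavidin-peroxidase (80 ng/mL, 1 h, 4 °C) and ABTS by absorbance; IC50 reported as geomean of several runs.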

human Gal-1 (hGal-1) = human Gal-1 (hGal-1) (Homo sapiens, UniProt P09382, C131S/C17S/C43S/C61S/C89S); experiment: Competitive binding assay: biotinylated hGal-1 binding to microplate-adsorbed asialofetuin (ASF); details: IC50 values from several measurements given as geomean
How it was run: as §1

human Gal-3 (hGal-3), sequence (P17931 whole entry): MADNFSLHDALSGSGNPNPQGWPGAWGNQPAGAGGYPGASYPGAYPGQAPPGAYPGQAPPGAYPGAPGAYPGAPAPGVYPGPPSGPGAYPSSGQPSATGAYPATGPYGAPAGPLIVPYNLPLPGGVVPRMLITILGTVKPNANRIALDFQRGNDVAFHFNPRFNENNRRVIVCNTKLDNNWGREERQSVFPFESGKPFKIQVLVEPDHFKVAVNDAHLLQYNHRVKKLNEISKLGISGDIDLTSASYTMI

SMILES	pIC50 (human Gal-3 (hGal-3))	pIC50 (human Gal-1 (hGal-1))
CO[C@@H]1[C@@H](n2cc(-c3ccc(Cl)c(F)c3F)nn2)[C@@H](O)[C@@H](CO)O[C@@H]1Cc1cn(C2(C(F)F)CCC2)nn1 [Ex 2.1.43.]	7.70	6.21
CO[C@@H]1[C@@H](n2cc(-c3ccc(C)c(F)c3F)nn2)[C@@H](O)[C@@H](CO)O[C@@H]1Cc1cn(C2[C@H]3CCC[C@@H]23)nn1 (stereo partly drawn) [Ex 1.1.20.]	7.30	5.46
CO[C@@H]1[C@@H](n2cc(-c3ccc(Cl)c(F)c3F)nn2)[C@@H](O)[C@@H](CO)O[C@@H]1Cc1cn(C2COCC2(F)F)nn1 (mixture of isomers) [Example 2.1.90.A]	7.52	5.95
CO[C@@H]1[C@@H](n2cc(-c3ccc(Cl)c(F)c3F)nn2)[C@@H](O)[C@@H](CO)O[C@@H]1Cc1cn(C2(C(F)F)COC2)nn1 [Ex 2.1.53., (2R,3R,4S,5R,6R)-4-(4-(4-chloro-2,3-difluorophenyl)-1H-1,2,3-triazol-1-yl)-6-((1-(3-(difluoromethyl)oxetan-3-yl)-1H-1,2,3-triazol-4-yl)methyl)-2-(hydroxymethyl)-5-methoxytetrahydro-2H-pyran-3-ol [1-(1,2,3-tri-deoxy-2-methoxy-3-[4-(4-chloro-2,3-difluorophenyl)-1H-1,2,3-triazol-1-yl]-α-D-galacto-pyranose)-1-(1-(3-difluoromethyl-3-oxetanyl)-1H-triazol-4-yl)-methane]]	7.70	6.38
CO[C@@H]1[C@@H](n2cc(-c3ccc(F)c(F)c3F)nn2)[C@@H](O)[C@@H](CO)O[C@@H]1Cc1cn(C2(C)CC(F)(F)C2)nn1 [Ex 3.1.15.]	7.30	6.34
CO[C@@H]1[C@@H](n2cc(-c3ccc(C)c(F)c3F)nn2)[C@@H](O)[C@@H](CO)O[C@@H]1Cc1cn(C2(CO)CC2)nn1 [Ex 1.1.4.]	7.40	5.59
CO[C@@H]1[C@@H](n2cc(-c3ccc(Cl)c(F)c3F)nn2)[C@@H](O)[C@@H](CO)O[C@@H]1Cc1cn(C2CC3(CC3)C2)nn1 [Ex 2.1.26.]	7.00	5.10
CO[C@@H]1[C@@H](n2cc(-c3ccc(Br)c(F)c3F)nn2)[C@@H](O)[C@@H](CO)O[C@@H]1Cc1cn(C23CC(F)(C2)C3)nn1 [Ex 4.1.25., (2R,3R,4S,5R,6R)-4-(4-(4-bromo-2,3-difluorophenyl)-1H-1,2,3-triazol-1-yl)-6-((1-(3-fluorobicyclo[1.1.1]pentan-1-yl)-1H-1,2,3-triazol-4-yl)methyl)-2-(hydroxymethyl)-5-methoxytetrahydro-2H-pyran-3-ol]	7.30	5.49
CO[C@@H]1[C@@H](n2cc(-c3ccc(Br)c(F)c3F)nn2)[C@@H](O)[C@@H](CO)O[C@@H]1Cc1cn(C2(C)CC(F)(F)C2)nn1 [Ex 4.1.15.]	7.30	5.62
CO[C@@H]1[C@@H](n2cc(-c3ccc(Br)c(F)c3F)nn2)[C@@H](O)[C@@H](CO)O[C@@H]1Cc1cn(C23CC(C(F)(F)F)(C2)C3)nn1 [Ex 4.1.24.]	6.89	4.55
CO[C@@H]1[C@@H](n2cc(-c3ccc(Cl)c(F)c3F)nn2)[C@@H](O)[C@@H](CO)O[C@@H]1Cc1cn(C2(C(F)F)CCOC2)nn1 (single isomer, unassigned) [Example 2.1.78.A]	7.40	6.44
CO[C@@H]1[C@@H](n2cc(-c3ccc(Br)c(F)c3F)nn2)[C@@H](O)[C@@H](CO)O[C@@H]1Cc1cn(C2CCC2(F)F)nn1 (stereo partly drawn) [Example 4.1.63.AB, (2R,3R,4S,5R,6R)-4-(4-(4-bromo-2,3-difluorophenyl)-1H-1,2,3-triazol-1-yl)-6-((1-(2,2-difluorocyclobutyl)-1H-1,2,3-triazol-4-yl)methyl)-2-(hydroxymethyl)-5-methoxytetrahydro-2H-pyran-3-ol]	7.15	5.50
CO[C@@H]1[C@@H](n2cc(-c3ccc(Cl)c(F)c3F)nn2)[C@@H](O)[C@@H](CO)O[C@@H]1Cc1cn([C@@H]2CCC[C@H]2F)nn1 (relative stereo) [Example 2.1.79.CD, (2R,3R,4S,5R,6R)-4-(4-(4-chloro-2,3-difluorophenyl)-1H-1,2,3-triazol-1-yl)-6-((1-((1R*,2R*)-2-fluorocyclopentyl)-1H-1,2,3-triazol-4-yl)methyl)-2-(hydroxymethyl)-5-methoxytetrahydro-2H-pyran-3-ol]	7.22	5.46
CO[C@@H]1[C@@H](n2cc(-c3ccc(F)c(F)c3F)nn2)[C@@H](O)[C@@H](CO)O[C@@H]1Cc1cn(C23CC(F)(C2)C3)nn1 [Ex 3.1.25.]	7.40	5.81
CO[C@@H]1[C@@H](n2cc(-c3ccc(Cl)c(F)c3F)nn2)[C@@H](O)[C@@H](CO)O[C@@H]1Cc1cn([C@@H]2COC[C@@H]2F)nn1 (single isomer, unassigned) [Example 2.1.74.B, (2R,3R,4S,5R,6R)-4-(4-(4-chloro-2,3-difluorophenyl)-1H-1,2,3-triazol-1-yl)-6-((1-((3R*,4R*)-4-fluorotetrahydrofuran-3-yl)-1H-1,2,3-triazol-4-yl)methyl)-2-(hydroxymethyl)-5-methoxytetrahydro-2H-pyran-3-ol]	7.40	5.79
CO[C@@H]1[C@@H](n2cc(-c3ccc(Br)c(F)c3F)nn2)[C@@H](O)[C@@H](CO)O[C@@H]1Cc1cn([C@]2(C)C[C@H](O)C2)nn1 [Ex 4.1.19.]	7.30	5.74
CO[C@@H]1[C@@H](n2cc(-c3ccc(Br)c(F)c3F)nn2)[C@@H](O)[C@@H](CO)O[C@@H]1Cn1cc(C2(C)CC2)nn1 [Ex 4.2.23.]	7.30	5.61

SMILES	pIC50 (human Gal-3 (hGal-3))	pIC50 (human Gal-1 (hGal-1))
CO[C@@H]1[C@@H](n2cc(-c3ccc(Br)c(F)c3F)nn2)[C@@H](O)[C@@H](CO)O[C@@H]1Cn1cc(C2CCCC2)nn1 [Ex 4.2.32.]	7.22	5.57
CO[C@@H]1[C@@H](n2cc(-c3ccc(Cl)c(F)c3F)nn2)[C@@H](O)[C@@H](CO)O[C@@H]1Cn1cc(C2CC3(C2)CC(F)(F)C3)nn1 [Ex 2.2.84.]	6.62	4.96
CO[C@@H]1[C@@H](n2cc(-c3ccc(F)c(F)c3F)nn2)[C@@H](O)[C@@H](CO)O[C@@H]1Cc1cn(C2CC3(CC3)C2)nn1 [Ex 3.1.26.]	7.15	6.12
CO[C@@H]1[C@@H](n2cc(-c3ccc(C)c(F)c3F)nn2)[C@@H](O)[C@@H](CO)O[C@@H]1Cc1cn(C2(CO)CC(F)(F)C2)nn1 [Ex 1.1.18.]	7.30	5.83
CO[C@@H]1[C@@H](n2cc(-c3ccc(C)c(F)c3F)nn2)[C@@H](O)[C@@H](CO)O[C@@H]1Cc1cn(C23CCC(N)(CC2)CC3)nn1 [Ex 1.2.39.]	7.22	4.96
CO[C@@H]1[C@@H](n2cc(-c3ccc(C)c(F)c3F)nn2)[C@@H](O)[C@@H](CO)O[C@@H]1Cc1cn([C@H]2CCC[C@@H]2O)nn1 [Ex 1.1.3.]	7.40	5.50
CO[C@@H]1[C@@H](n2cc(-c3ccc(F)c(F)c3F)nn2)[C@@H](O)[C@@H](CO)O[C@@H]1Cc1cn(C2CCC23CCC3)nn1 (stereo partly drawn) [Ex 3.1.82.]	7.30	6.43
CO[C@@H]1[C@@H](n2cc(-c3ccc(Cl)c(F)c3F)nn2)[C@@H](O)[C@@H](CO)O[C@@H]1Cc1cn([C@@H]2CCOC[C@H]2F)nn1 [Example 2.1.66.C, (2R,3R,4S,5R,6R)-4-(4-(4-chloro-2,3-difluorophenyl)-1H-1,2,3-triazol-1-yl)-6-((1-((3S,4R)-3-fluorotetrahydro-2H-pyran-4-yl)-1H-1,2,3-triazol-4-yl)methyl)-2-(hydroxymethyl)-5-methoxytetrahydro-2H-pyran-3-ol]	7.70	6.02
CO[C@@H]1[C@@H](n2cc(-c3ccc(Br)c(F)c3F)nn2)[C@@H](O)[C@@H](CO)O[C@@H]1Cc1cn([C@@H]2CCCC2(F)F)nn1 [Example 4.1.64.A, (2R,3R,4S,5R,6R)-4-(4-(4-bromo-2,3-difluorophenyl)-1H-1,2,3-triazol-1-yl)-6-((1-((R)-2,2-difluorocyclopentyl)-1H-1,2,3-triazol-4-yl)methyl)-2-(hydroxymethyl)-5-methoxytetrahydro-2H-pyran-3-ol]	7.52	5.76
CO[C@@H]1[C@@H](n2cc(-c3ccc(F)c(F)c3F)nn2)[C@@H](O)[C@@H](CO)O[C@@H]1Cn1cc(C23CCC(NC(=O)OC(C)(C)C)(CC2)CC3)nn1 [Ex 3.2.37.]	7.40	5.76
CO[C@@H]1[C@@H](n2cc(-c3ccc(F)c(F)c3F)nn2)[C@@H](O)[C@@H](CO)O[C@@H]1Cc1cn(C23CC(C)(C2)C3)nn1 [Ex 3.1.14.]	7.22	6.15
CO[C@@H]1[C@@H](n2cc(-c3ccc(Cl)c(F)c3F)nn2)[C@@H](O)[C@@H](CO)O[C@@H]1Cc1cn([C@@H]2CCCC[C@H]2F)nn1 [Example 2.1.81.C, (2R,3R,4S,5R,6R)-4-(4-(4-chloro-2,3-difluorophenyl)-1H-1,2,3-triazol-1-yl)-6-((1-((1R,2R)-2-fluorocyclohexyl)-1H-1,2,3-triazol-4-yl)methyl)-2-(hydroxymethyl)-5-methoxytetrahydro-2H-pyran-3-ol]	7.22	5.53
CO[C@@H]1[C@@H](n2cc(-c3ccc(Cl)c(F)c3F)nn2)[C@@H](O)[C@@H](CO)O[C@@H]1Cn1cc(C2(CO)CC2)nn1 [Ex 2.2.4.]	7.30	5.83
CO[C@@H]1[C@@H](n2cc(-c3ccc(F)c(F)c3F)nn2)[C@@H](O)[C@@H](CO)O[C@@H]1Cc1cn(C2(C(F)F)COC2)nn1 [Ex 3.1.53.]	7.70	6.89
CO[C@@H]1[C@@H](n2cc(-c3ccc(Cl)c(F)c3F)nn2)[C@@H](O)[C@@H](CO)O[C@@H]1Cc1cn(C2[C@H]3CCC[C@@H]23)nn1 (stereo partly drawn) [Ex 2.1.20.]	7.22	5.69
CO[C@@H]1[C@@H](n2cc(-c3ccc(Cl)c(F)c3F)nn2)[C@@H](O)[C@@H](CO)O[C@@H]1Cc1cn(C2(C(F)(F)F)CCOC2)nn1 (single isomer, unassigned) [Example 2.1.77.B]	7.52	6.23
